Measured values taken from article PMC12399242 (Acta Pharmaceutica Sinica. B, 2025).
Where a name gives a salt, the structure may show the parent alone. Read-outs that look alike come from different tables or passages of the source.

Key:
[1] = tested on: HIV-1 E138K; assay: Antiviral activity against HIV-1 mutant E138K in MT-4 cells; type: cell-based
[2] = tested on: HIV-1 L100I; assay: Antiviral activity against HIV-1 mutant L100I in MT-4 cells; type: cell-based
[3] = tested on: HIV-1 K103N + Y181C (RES056); assay: Antiviral activity against HIV-1 double mutant K103N + Y181C (RES056) in MT-4 cells; type: cell-based
[4] = tested on: HIV-1 (IIIB); assay: microbe, parasite or virus in culture; type: cell-based; conditions: for EC50: mean ± SD, n ≥ 3; for SI (IIIB): selectivity index, ratio CC50/EC50
Description: (§1) Inspired by our previous research on heteroaromatic-biphenyl-DAPYs[15], the 4-cyanophenyl group on the biphenyl moiety was replaced with a privileged 4-pyridyl group for further evaluation.

[5] = tested on: HIV-1 Y181C; assay: Antiviral activity against HIV-1 mutant Y181C in MT-4 cells; type: cell-based
[6] = tested on: HIV-1 F227L + V106A; assay: microbe, parasite or virus in culture; type: cell-based
[7] = tested on: HIV-1 Y188L; assay: Antiviral activity against HIV-1 mutant Y188L in MT-4 cells; type: cell-based
[8] = tested on: MT-4 cells; assay: in vitro
Description: as §1

[9] = tested on: HIV-1 K103N; assay: Antiviral activity against HIV-1 mutant K103N in MT-4 cells; type: cell-based
[10] = target: WT HIV-1 RT (Human immunodeficiency virus type 1 group M subtype B, UniProt P03366); assay: Inhibition of WT HIV-1 RT polymerase activity
Protocol: The anti-HIV-1 activity of A1–A24 and B1–B22 at the cellular or enzyme level were evaluated following our previously reported method[15].

[11] = target: T1, CYP2D6 (Homo sapiens, UniProt P10635); assay: CYP enzyme inhibition assay, CYP2D6; type: in vitro ADME; conditions: IC50 CYP2D6, human liver microsomes
T1 construct: An incubation system of human liver microsomes (20 μL, 1.5 mg/mL); from tissue; host or cells: human liver microsomes
Protocol: An incubation system of human liver microsomes (20 μL, 1.5 mg/mL), 20 μL probe substrates, and 50 μL test compound in Tris (0.1 mol/L) was pre-incubated at 37 °C for 10 min, and then initiated by adding NADPH (10 μL, 10 mmol/L). The system was incubated for another 15 min and subsequently terminated by 100 μL MeCN containing internal standard (propranolol, nadolol). Finally, the sample was centrifugated to obtain the supernatant for LC‒MS/MS analysis.

[12] = comparison values; cited from earlier work
[13] = in vitro; conditions: human, CC50
Description: as §1

[14] = tested on: MT-4 cells; conditions: earlier compounds of Fig. 1 / introduction; cited from earlier work
[15] = tested on: HIV-1 (IIIB); conditions: earlier compounds of Fig. 1 / introduction, cited from earlier work
[16] = WT HIV-1, protection of MT-4 cells against HIV-induced cytopathogenicity
[17] = Human immunodeficiency virus 1, MT4, read-out: EC50 E138K
[18] = Human immunodeficiency virus 1, MT4, read-out: EC50 L100I
[19] = Human immunodeficiency virus 1, MT4, read-out: EC50 K103N + Y181C
[20] = Human immunodeficiency virus 1, MT4, read-out: EC50 Y181C
[21] = Human immunodeficiency virus 1, MT4, read-out: EC50 F227L + V106A
[22] = Human immunodeficiency virus 1, MT4, read-out: EC50 Y188L
[23] = Human immunodeficiency virus 1, MT4, read-out: EC50 K103N
[24] = Human immunodeficiency virus 1, IIIB, MT4, WT HIV-1, protection of MT-4 cells against HIV-induced cytopathogenicity

T1 sequence (P10635 whole entry): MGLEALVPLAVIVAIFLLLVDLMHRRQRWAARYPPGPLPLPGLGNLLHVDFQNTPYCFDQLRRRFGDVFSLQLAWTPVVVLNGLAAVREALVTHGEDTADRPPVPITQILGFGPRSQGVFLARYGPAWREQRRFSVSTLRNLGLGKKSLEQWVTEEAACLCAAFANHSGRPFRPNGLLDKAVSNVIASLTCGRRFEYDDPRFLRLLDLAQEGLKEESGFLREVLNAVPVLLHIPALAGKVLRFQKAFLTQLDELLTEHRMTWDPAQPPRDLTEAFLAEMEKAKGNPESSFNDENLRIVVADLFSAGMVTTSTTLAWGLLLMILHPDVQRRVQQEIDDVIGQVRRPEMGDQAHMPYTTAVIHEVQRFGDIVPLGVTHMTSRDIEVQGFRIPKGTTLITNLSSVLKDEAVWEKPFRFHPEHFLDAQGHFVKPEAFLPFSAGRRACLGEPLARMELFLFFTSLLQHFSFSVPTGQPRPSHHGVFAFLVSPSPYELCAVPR

Compound: O=C1Nc2ccc(Cl)cc2[C@@](C#CC2CC2)(C(F)(F)F)O1 [EFV, reference compound]
- EC50 ([1]; MT-4 cells, mean ± SD, n ≥ 3, read-out: EC50 E138K): 5.4 ± 1.6 nM
- EC50 ([2]; MT-4 cells, mean ± SD, n ≥ 3, read-out: EC50 L100I): 24 ± 9.5 nM
- EC50 ([3]; RES056, MT-4 cells, mean ± SD, n ≥ 3, read-out: EC50 K103N + Y181C): 314 ± 146 nM
- EC50 [4, 16]: 3.8 ± 1 nM
- SI (IIIB) [4]: >1618
- EC50 ([5]; MT-4 cells, mean ± SD, n ≥ 3, read-out: EC50 Y181C): 6.3 ± 2.5 nM
- EC50 ([6]; MT-4 cells, mean ± SD, n ≥ 3, read-out: EC50 F227L + V106A): 181 ± 89 nM
- EC50 ([7]; MT-4 cells, mean ± SD, n ≥ 3, read-out: EC50 Y188L): 244 ± 95 nM
- CC50 ([8]; uninfected MT-4 cells, mean ± SD, n ≥ 3): > 6300 nM
- EC50 ([9]; MT-4 cells, mean ± SD, n ≥ 3, read-out: EC50 K103N): 60 ± 19 nM

Compound: N#Cc1ccc(Nc2ncc(Cl)c(Nc3c(F)cc(-c4ccc(C#N)cc4)cc3F)n2)cc1 [B10, 4′-((5-Chloro-2-((4-cyanophenyl)amino)pyrimidin-4-yl)amino)-3′,5′-difluoro-[1,1′-biphenyl]-4-carbonitrile]
- EC50 [1, 17]: 5.7 ± 2.8 nM
- EC50 [2, 18]: 17 ± 8.1 nM
- EC50 [3, 19]: 676 ± 349 nM
- EC50 [5, 20]: 11 ± 1.5 nM
- EC50 [6, 21]: 959 ± 327 nM
- EC50 [7, 22]: 187 ± 52 nM
- EC50 [9, 23]: 5 ± 2.4 nM
- IC50 [10]: 31 ± 2.2 nM

Compound: COc1ccc2c(c1)[C@]13CCCC[C@@H]1[C@H](C2)N(C)CC3 [Dextromethorphan, reference compound]
- IC50 [11]: 224 nM

Compound: Cc1cc(/C=C/C#N)cc(C)c1Nc1ccnc(Nc2ccc(C#N)cc2)n1 [RPV · HCl, rilpivirine HCl]
- F (oral bioavailability) [12]: 32%

Compound: N#Cc1ccc(Nc2ncc(F)c(Oc3ccc(-c4ccc(C#N)cc4)cc3F)n2)cc1 [A1, 4′-((2-((4-Cyanophenyl)amino)-5-fluoropyrimidin-4-yl)oxy)-3′-fluoro-[1,1′-biphenyl]-4-carbonitrile]
- EC50 [1, 17]: 28 ± 12 nM
- EC50 [2, 18]: 174 ± 49 nM
- EC50 [3, 19]: > 47000 nM
- EC50 [4, 24]: ≤ 5.3 nM
- EC50 [4, 16]: 4.2 ± 1.4 nM
- SI (IIIB) [4]: >10,870
- EC50 [5, 20]: 306 ± 117 nM
- EC50 [6, 21]: > 47000 nM
- EC50 [7, 22]: > 47000 nM
- CC50 ([8]; human): > 47000 nM
- CC50 [13]: > 45000 nM
- EC50 [9, 23]: 52 ± 42 nM
- IC50 [10]: 54 ± 9.4 nM

Compound: Cc1cc(-c2ccc(C#N)cc2)cc(C)c1Nc1nc(Nc2ccc(C#N)cc2)ncc1Cl [B11, 4′-((5-Chloro-2-((4-cyanophenyl)amino)pyrimidin-4-yl)amino)-3′,5′-dimethyl-[1,1′-biphenyl]-4-carbonitrile]
- EC50 [1, 17]: 12 ± 6.9 nM
- EC50 [2, 18]: 5.5 ± 1.8 nM
- EC50 [3, 19]: 102 ± 24 nM
- EC50 [4, 24]: ≤ 5.3 nM
- EC50 [4, 16]: 5.3 ± 1.8 nM
- SI (IIIB) [4]: 47,357
- EC50 [5, 20]: 9.8 ± 3.3 nM
- EC50 [6, 21]: 164 ± 71 nM
- EC50 [7, 22]: 33 ± 6.7 nM
- EC50 [9, 23]: 4.4 ± 1.1 nM
- IC50 [10]: 53 nM

Compound: N#Cc1ccc(Nc2ncc(F)c(Nc3c(F)cc(-c4ccc(C#N)cc4)cc3F)n2)cc1 [A11, 4′-((2-((4-Cyanophenyl)amino)-5-fluoropyrimidin-4-yl)amino)-3′,5′-difluoro-[1,1′-biphenyl]-4-carbonitrile]
- EC50 [1, 17]: 2.5 ± 0.7 nM
- EC50 [2, 18]: 10 ± 2.9 nM
- EC50 [3, 19]: > 45200 nM
- SI (IIIB) [4]: >40,000
- EC50 [5, 20]: 8.1 ± 2 nM
- EC50 [6, 21]: > 45200 nM
- EC50 [7, 22]: > 45200 nM
- CC50 [13]: > 45000 nM
- EC50 [9, 23]: 5 ± 1.1 nM
- IC50 [10]: 27 ± 2.3 nM

Compound: N#Cc1ccc(Nc2ncc(F)c(Oc3c(F)cc(-c4ccncc4)cc3F)n2)cc1 [A17, 4-((4-(2,6-Difluoro-4-(pyridin-4-yl)phenoxy)-5-fluoropyrimidin-2 yl)amino)benzonitrile]
- EC50 [4, 24]: 11 ± 4.1 nM
- SI (IIIB) [4]: >4396
- CC50 [13]: > 48000 nM

Compound: N#Cc1ccc(Nc2nccc(Nc3c(F)cc(-c4ccc(C#N)cc4)cc3F)n2)cc1 [compound 4]
- CC50 [14]: > 294000 nM
- EC50 ([15]; WT HIV-1): 1.3 nM
- SI [15]: > 238,095

Compound: N#Cc1ccc(Nc2ncc(F)c(Nc3ccc(-c4ccc(C#N)cc4)cc3F)n2)cc1 [A7, 4′-((2-((4-Cyanophenyl)amino)-5-fluoropyrimidin-4-yl)amino)-3′-fluoro-[1,1′-biphenyl]-4-carbonitrile]
- EC50 [1, 17]: 35 ± 17 nM
- EC50 [2, 18]: 5440 ± 2400 nM
- EC50 [3, 19]: > 47100 nM
- SI (IIIB) [4]: >25,806
- EC50 [5, 20]: 259 ± 165 nM
- EC50 [6, 21]: > 47100 nM
- EC50 [7, 22]: > 47100 nM
- CC50 ([8]; human): > 47000 nM
- CC50 [13]: > 45000 nM
- EC50 [9, 23]: 68 ± 38 nM
- IC50 [10]: 28 ± 4.7 nM
